Experimental data: patent US5574009A, “Method of stimulating myelination of cells” (Trustees of the University Of Pennsylvania, priority 1994, dated 1996)

Test system: neonatal rat optic nerve cultures
Experiment: Mitomycin C treatment of optic nerve cultures
Assay type: cell-based
Details: 25 μg/ml for 30 minutes, PND-1, then 24 or 48 hours
Procedure: A stock solution of 0.5 mg/ml mitomycin C (Sigma) in HBSS (Gibco) was prepared and stored at 4° C. in the dark. Cultures were treated with 25 μg/ml mitomycin C diluted in N2/0.5% FCS for 30 minutes at 37° C. in the dark. The cultures were washed twice with N2/0.5% FCS and cultured for an additional 24 or 48 hours.
To test whether inhibition of proliferation per se affected the timing of GalC(+) appearance, optic nerve cultures prepared on PND-1 were treated with mitomycin C. After plating, the cells were incubated with 25 μg/ml mitomycin C for 30 minutes. After washing, the cultures were carried for an additional 24 or 48 hours.

With `CO[C@@]12[C@H](COC(N)=O)C3=C(C(=O)C(C)=C(N)C3=O)N1C[C@@H]1N[C@@H]12` [mitomycin C] the “numbers of A2B5(+) cells” value was “Decreased numbers of A2B5(+) cells” and the “proportion of GalC(+) cells” value was “without a concomitant increase in the proportion of GalC(+) cells”.
